The record followed here is ChEMBL document CHEMBL1201862, “PubChem BioAssay data set” (2004).

Molecules are shown by their SMILES.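 Step 1: Grow cells in 96-well plates. Step 2: Expose to compound for 48 hours at 5 concentrations. Step 3: Interpolate endpoints linearly; if unreached, use highest concentration. Abbreviation: GI50, concentration required for 50% inhibition of growth.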 Activity calls are given as the source filed them. Cut-off read from the data, not from the text of the source: active = GI50 up to about 1.1 µM and inactive = higher.

Some test systems named below: DLD-1; KM-20L2; HOP-18; LXFL 529; SNB-78; M19-MEL; RXF 631; DMS-273; XF498.
Common to all, as to assay: NCI anticancer screen, dose series, 48 h

For the compound `CCCC/C=C1\CCC(C)(CN(C)C)C1=O` (stereo not drawn), the GI50 in the experiment with DLD-1 was > 10 µM (inactive); in the experiment with KM-20L2, > 100 µM (inactive); in the experiment with HOP-18, > 100 µM (inactive); with LXFL 529, > 100 µM (inactive); in the experiment with SNB-78, > 100 µM (inactive); in the experiment with M19-MEL, 15.6 µM (inactive).
Regarding `Cc1c(C)c2cc3c(=O)ccoc3c(C)c2oc1=O`, the GI50 in the experiment on KM-20L2 is > 100 µM (inactive); in the experiment on HOP-18 it was 41.6 µM (inactive); in the experiment on LXFL 529, 80.4 µM (inactive); with RXF 631, 83 µM (inactive); in the experiment on SNB-78, > 100 µM (inactive); in the experiment on M19-MEL, 70.6 µM (inactive).
Turning to `CCOc1ccc(NC(=O)CCc2nnc(SC)o2)cc1`, the GI50 with DLD-1, in the experiment with DMS-273, in the experiment on KM-20L2, in the experiment with HOP-18, in the experiment with LXFL 529 and in the experiment with SNB-78 was > 100 µM (inactive) each time. For the same compound, in the experiment on M19-MEL, the GI50 was > 100 µM (inactive).
As to `COc1ccccc1NC(=O)C1=C(C)NC(C)=C(C(=O)Nc2ccccc2OC)C1c1ccco1`, the GI50 in the experiment with DLD-1 is 4.27 µM (inactive); in the experiment with DMS-273, 4.14 µM (inactive); in the experiment on KM-20L2, 3.76 µM (inactive); in the experiment with XF498 it was 6.01 µM (inactive); with HOP-18 it was 3.31 µM (inactive); in the experiment with LXFL 529 it was 5.15 µM (inactive). For the same compound, the GI50 is 6.18 µM (inactive) with RXF 631, 9.1 µM (inactive) in the experiment on SNB-78 and 4.63 µM (inactive) with M19-MEL.
With `CCCCOC(=O)N[C@H]1CCc2cc(OC)c(OC)c(OC)c2-c2ccc(SC)c(=O)cc21`, the GI50 in the experiment with DLD-1 was < 0.01 µM (active); in the experiment with DMS-273 it was < 0.01 µM (active); in the experiment on KM-20L2, < 0.01 µM (active); in the experiment on XF498, < 0.01 µM (active); in the experiment with HOP-18, 21.4 µM (inactive); in the experiment with LXFL 529, < 0.01 µM (active). For the same compound, the GI50 with SNB-78 and in the experiment with M19-MEL was < 0.01 µM (active) in each case.
For the compound `COc1ccc(/N=C/c2ccc(N(CCC#N)S(=O)(=O)c3ccccc3)cc2)cc1`, the GI50 with DLD-1, with DMS-273, in the experiment on KM-20L2, in the experiment on XF498, with HOP-18 and in the experiment with LXFL 529 was > 100 µM (inactive) each time. Also, the GI50 with RXF 631, with SNB-78 and in the experiment with M19-MEL was > 100 µM (inactive) in each case.
For the compound `O=C(Nc1c(O)[nH]c(=S)[nH]c1=O)c1ccccc1F`, the GI50 in the experiment on DLD-1, in the experiment with KM-20L2, with HOP-18, in the experiment with LXFL 529, in the experiment on RXF 631 and with SNB-78 was > 100 µM (inactive) throughout. In addition, the GI50 in the experiment on M19-MEL was > 100 µM (inactive).
On to `O=C1C2C3C=C4c5ccccc5N(c5ccccc5)C4(C2C(=O)N1c1ccc(Br)cc1)[C@H]1C(=O)N(c2ccc(Br)cc2)C(=O)[C@@H]31` (stereo partly drawn), for which the GI50 in the experiment on DLD-1 is > 100 µM (inactive); in the experiment with DMS-273, > 100 µM (inactive); with KM-20L2, > 100 µM (inactive); with XF498 it was > 100 µM (inactive); in the experiment on HOP-18, > 100 µM (inactive); in the experiment on LXFL 529, 83.8 µM (inactive). The GI50 with SNB-78 is > 100 µM (inactive).
As to `Cc1c(/N=C\c2ccc(N(CCC#N)CCC#N)cc2)c(=O)n(-c2ccccc2)n1C`, the GI50 in the experiment with DLD-1 was > 100 µM (inactive); in the experiment with DMS-273, > 88.5 µM (inactive); in the experiment on KM-20L2, > 100 µM (inactive); with XF498 it was 28 µM (inactive); in the experiment on HOP-18, 25.2 µM (inactive); in the experiment on LXFL 529, > 100 µM (inactive). In addition, the GI50 in the experiment with SNB-78 was 51.6 µM (inactive); in the experiment with M19-MEL, > 100 µM (inactive).
Consider `CCCCCCCSCC1C(=O)C23C(O)C1CCC2C12COC3(O)C(O)C1C(C)(C)CCC2O` (stereo not drawn), for which the GI50 is 14.4 µM (inactive) in the experiment on DLD-1; 12.6 µM (inactive) in the experiment on DMS-273; 12 µM (inactive) with KM-20L2; 18.5 µM (inactive) in the experiment on XF498; 12.5 µM (inactive) in the experiment on HOP-18; 2.37 µM (inactive) in the experiment on LXFL 529. In addition, the GI50 in the experiment on RXF 631 is 5.04 µM (inactive); in the experiment with SNB-78, 15.3 µM (inactive); with M19-MEL it was 15.3 µM (inactive).
Consider `COc1cc2c(cc1OC)C(OC)N(C)c1c-2ccc2cc3c(cc12)OCO3` (stereo not drawn), for which the GI50 is 9.68 µM (inactive) with DLD-1; 1.11 µM (active) in the experiment with DMS-273; 0.558 µM (active) with KM-20L2; 0.895 µM (active) in the experiment on XF498; 21.6 µM (inactive) in the experiment on HOP-18; 2.67 µM (inactive) with SNB-78. Moreover, the GI50 in the experiment with M19-MEL was 1.19 µM (inactive).
For `CCSC1=CC(Cc2ccc(OC)cc2)N(C(=O)OC)C1` (stereo not drawn), the GI50 is 81.8 µM (inactive) with DLD-1; 70 µM (inactive) with DMS-273; > 100 µM (inactive) in the experiment with KM-20L2; > 100 µM (inactive) in the experiment on XF498; > 100 µM (inactive) with HOP-18; 91.4 µM (inactive) in the experiment on LXFL 529. Further, the GI50 in the experiment with RXF 631, in the experiment on SNB-78 and in the experiment with M19-MEL was > 100 µM (inactive) in each case.
In the case of `CCCCCCCCCCCCCCCCOC(=O)c1cc(O)cc(C(=O)OCCCCCCCCCCCCCCCC)c1`, the GI50 in the experiment on DMS-273, in the experiment on KM-20L2, in the experiment on HOP-18, in the experiment on LXFL 529, in the experiment on RXF 631 and in the experiment on SNB-78 was > 100 µM (inactive) throughout. The GI50 in the experiment with M19-MEL is > 100 µM (inactive).
As to `Cc1nc(C)c(C(=O)Nc2cccc3c2C(=O)NC3=O)cc1C(=O)Nc1cccc2c1C(=O)NC2=O`, the GI50 in the experiment on DLD-1, in the experiment on DMS-273, with KM-20L2, in the experiment with XF498, in the experiment on HOP-18 and in the experiment with LXFL 529 was > 100 µM (inactive) in each case. Moreover, the GI50 with SNB-78 and in the experiment on M19-MEL was > 100 µM (inactive) in each case.
`COC(=O)C12C34C=CC5(CCC6(C=CC1(CC3)O6)C52C(=O)OC)O4` (stereo not drawn): the GI50 in the experiment on DMS-273 was > 100 µM (inactive); in the experiment with KM-20L2, > 100 µM (inactive); with XF498, 46.8 µM (inactive); in the experiment on HOP-18 it was > 100 µM (inactive); in the experiment on LXFL 529, > 100 µM (inactive); in the experiment with RXF 631 it was > 100 µM (inactive). For the same compound, the GI50 in the experiment on SNB-78 and in the experiment on M19-MEL was > 100 µM (inactive) in each case.
As for `Cc1cc(/C=C/c2cc[n+](C)c3ccccc23)c(O)c2ncccc12`, the GI50 is 3.32 µM (inactive) in the experiment with DLD-1; 0.558 µM (active) in the experiment with DMS-273; 5.68 µM (inactive) in the experiment on KM-20L2; 1.36 µM (inactive) in the experiment on HOP-18; 0.156 µM (active) in the experiment with LXFL 529; 4.63 µM (inactive) in the experiment with SNB-78. For the same compound, the GI50 in the experiment with M19-MEL was 1.42 µM (inactive).
On to `CC(C)S(=O)(=O)ON1C(=O)c2ccc([N+](=O)[O-])cc2C1=O`, for which the GI50 in the experiment on DLD-1, in the experiment with DMS-273, with XF498, in the experiment on HOP-18, in the experiment on LXFL 529 and in the experiment on RXF 631 was > 100 µM (inactive) each time. The GI50 with SNB-78 and in the experiment on M19-MEL was > 100 µM (inactive) in each case.
For the compound `C/C(=N/NC(=O)C(N)=O)C(CC(C(=O)Nc1ccccc1C)/C(C)=N\NC(=O)C(N)=O)C(=O)Nc1ccccc1C` (stereo not drawn), the GI50 with DLD-1, in the experiment on KM-20L2, in the experiment with LXFL 529, in the experiment on SNB-78 and in the experiment on M19-MEL was > 100 µM (inactive) throughout.
On to `COc1ccc2c(c1)CC[C@@H]1C2CC[C@]2(C)C(=O)NC(=O)CC12` (stereo partly drawn), for which the GI50 in the experiment with DLD-1 is > 100 µM (inactive); in the experiment on DMS-273 it was 65.8 µM (inactive); with KM-20L2, > 100 µM (inactive); in the experiment on XF498, > 100 µM (inactive); with HOP-18, 26 µM (inactive); in the experiment with LXFL 529 it was 59.3 µM (inactive). For the same compound, the GI50 in the experiment with SNB-78 and in the experiment on M19-MEL was > 100 µM (inactive) throughout.
